Test results from patent US11208386B2, “Inhibitors of protein arginine deiminases (PADs) and methods of preparation and use thereof” (University of Massachusetts, priority 2016, dated 2021).

How the values were obtained:
Assay type in all cases: biochemical
PAD2 = molecular target: T1, PAD2 (Homo sapiens, UniProt Q9Y2J8); assay: Inactivation kinetics, PAD2; settings: for kinact/KI: a: single kobs determined, b: from a linear fit, other footnotes: from kinact and KI; for Fold PAD2 Selectivity: kinact/KI relative to least inhibited isozyme (1.0); for Ki / kinact: PAD2, table footnote
T1 construct: made in house
T1 sequence (Q9Y2J8 whole entry): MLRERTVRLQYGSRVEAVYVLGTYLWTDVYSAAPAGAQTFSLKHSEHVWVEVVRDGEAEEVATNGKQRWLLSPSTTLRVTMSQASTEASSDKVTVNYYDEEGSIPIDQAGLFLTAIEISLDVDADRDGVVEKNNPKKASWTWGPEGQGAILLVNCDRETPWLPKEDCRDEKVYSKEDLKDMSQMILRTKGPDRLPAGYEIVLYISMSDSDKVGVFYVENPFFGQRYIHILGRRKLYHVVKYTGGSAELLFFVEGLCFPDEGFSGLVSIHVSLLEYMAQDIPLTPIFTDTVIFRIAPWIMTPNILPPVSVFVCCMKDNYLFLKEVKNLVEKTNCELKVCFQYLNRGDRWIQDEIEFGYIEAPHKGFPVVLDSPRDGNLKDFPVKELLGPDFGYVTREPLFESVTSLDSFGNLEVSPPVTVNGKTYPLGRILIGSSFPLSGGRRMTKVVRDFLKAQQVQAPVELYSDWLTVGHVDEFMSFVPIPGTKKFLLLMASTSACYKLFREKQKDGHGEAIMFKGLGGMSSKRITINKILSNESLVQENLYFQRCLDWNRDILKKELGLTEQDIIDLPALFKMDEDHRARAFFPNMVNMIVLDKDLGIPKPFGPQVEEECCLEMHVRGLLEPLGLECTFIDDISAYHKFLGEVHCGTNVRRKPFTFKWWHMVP
How it was run: (§1)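 PAD1, 2 or 4 (2.0 μM) or PAD3 (5.0 μM) preincubated at 37 °C with varying inhibitor in 50 mM HEPES, 10 mM CaCl2, 2 mM DTT, pH 7.6. Timed aliquots assayed 15 min with 10 mM BAEE (BAA for PAD3); citrulline quantified by COLDER.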

PAD1 = molecular target: T2, PAD1 (Homo sapiens, UniProt Q9ULC6); assay: Inactivation kinetics, PAD1; settings: for kinact/KI: a: single kobs determined, b: from a linear fit; for Fold PAD1 Selectivity: kinact/KI relative to least inhibited isozyme (1.0)
T2 construct: made in house
T2 sequence (Q9ULC6 1-663): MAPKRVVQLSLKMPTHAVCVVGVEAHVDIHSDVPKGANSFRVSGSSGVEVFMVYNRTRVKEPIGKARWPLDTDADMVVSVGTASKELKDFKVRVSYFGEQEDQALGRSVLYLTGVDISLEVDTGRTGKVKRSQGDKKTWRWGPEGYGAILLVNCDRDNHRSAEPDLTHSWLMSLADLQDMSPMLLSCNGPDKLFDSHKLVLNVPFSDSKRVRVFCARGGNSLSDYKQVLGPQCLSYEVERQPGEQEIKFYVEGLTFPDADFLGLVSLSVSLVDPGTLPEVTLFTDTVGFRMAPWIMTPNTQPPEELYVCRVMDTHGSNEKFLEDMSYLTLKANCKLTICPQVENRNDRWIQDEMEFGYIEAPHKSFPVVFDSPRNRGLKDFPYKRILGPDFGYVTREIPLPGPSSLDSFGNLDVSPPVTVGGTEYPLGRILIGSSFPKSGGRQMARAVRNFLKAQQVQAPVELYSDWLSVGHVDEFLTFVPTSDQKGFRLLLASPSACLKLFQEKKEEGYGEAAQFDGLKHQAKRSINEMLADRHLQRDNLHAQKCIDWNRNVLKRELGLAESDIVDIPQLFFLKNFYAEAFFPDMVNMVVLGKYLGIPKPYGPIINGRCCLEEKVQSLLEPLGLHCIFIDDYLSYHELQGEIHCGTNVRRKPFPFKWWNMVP
How it was run: as §1

PAD3 = molecular target: T3, PAD3 (Homo sapiens, UniProt Q9ULW8); assay: Inactivation kinetics, PAD3; settings: for kinact/KI: a: single kobs determined; for Fold PAD3 Selectivity: kinact/KI relative to least inhibited isozyme (1.0)
T3 construct: made in house
T3 sequence (Q9ULW8 1-664): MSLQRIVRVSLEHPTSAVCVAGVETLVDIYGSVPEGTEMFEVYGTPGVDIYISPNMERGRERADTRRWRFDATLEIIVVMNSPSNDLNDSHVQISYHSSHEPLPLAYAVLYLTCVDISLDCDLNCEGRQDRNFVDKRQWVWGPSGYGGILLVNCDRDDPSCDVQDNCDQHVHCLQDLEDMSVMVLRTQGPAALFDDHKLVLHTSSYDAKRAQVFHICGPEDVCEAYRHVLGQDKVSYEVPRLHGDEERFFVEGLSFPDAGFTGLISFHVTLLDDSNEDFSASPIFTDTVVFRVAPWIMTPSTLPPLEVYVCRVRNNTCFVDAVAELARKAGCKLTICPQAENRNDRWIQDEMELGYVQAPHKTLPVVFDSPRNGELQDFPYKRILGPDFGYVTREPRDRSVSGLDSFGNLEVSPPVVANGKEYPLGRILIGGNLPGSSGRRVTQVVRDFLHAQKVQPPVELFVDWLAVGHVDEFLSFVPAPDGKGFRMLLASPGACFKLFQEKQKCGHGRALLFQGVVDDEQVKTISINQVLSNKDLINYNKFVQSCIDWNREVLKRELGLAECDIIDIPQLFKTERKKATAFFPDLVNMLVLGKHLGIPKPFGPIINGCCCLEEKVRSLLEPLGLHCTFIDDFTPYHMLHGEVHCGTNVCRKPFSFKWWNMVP
How it was run: as §1

PAD4 = molecular target: T4, PAD4 (Homo sapiens, UniProt Q9UM07); assay: Inactivation kinetics, PAD4; settings: for kinact/KI: a: single kobs determined, b: from a linear fit; for Fold PAD4 Selectivity: kinact/KI relative to least inhibited isozyme (1.0)
T4 construct: made in house
T4 sequence (Q9UM07 whole entry): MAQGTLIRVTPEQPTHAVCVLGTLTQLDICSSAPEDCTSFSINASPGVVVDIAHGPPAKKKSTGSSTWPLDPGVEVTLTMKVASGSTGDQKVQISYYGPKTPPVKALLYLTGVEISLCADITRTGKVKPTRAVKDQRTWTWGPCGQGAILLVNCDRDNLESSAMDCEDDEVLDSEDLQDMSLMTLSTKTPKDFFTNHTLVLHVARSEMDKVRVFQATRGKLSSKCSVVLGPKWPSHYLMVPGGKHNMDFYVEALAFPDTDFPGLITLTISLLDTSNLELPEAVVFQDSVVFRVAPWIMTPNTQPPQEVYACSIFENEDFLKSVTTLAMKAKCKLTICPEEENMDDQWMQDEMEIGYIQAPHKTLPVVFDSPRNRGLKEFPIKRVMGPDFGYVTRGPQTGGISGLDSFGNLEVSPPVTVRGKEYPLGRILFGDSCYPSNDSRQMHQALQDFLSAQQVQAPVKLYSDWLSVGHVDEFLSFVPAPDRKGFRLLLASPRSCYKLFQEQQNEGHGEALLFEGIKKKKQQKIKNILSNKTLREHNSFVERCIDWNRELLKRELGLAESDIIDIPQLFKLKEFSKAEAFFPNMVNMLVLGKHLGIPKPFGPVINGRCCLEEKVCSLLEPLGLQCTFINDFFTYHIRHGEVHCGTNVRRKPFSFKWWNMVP
How it was run: as §1

SMILES	kinact/KI (PAD2) [M⁻¹ s⁻¹]	Fold PAD2 Selectivity (PAD2) [fold]	kinact/KI (PAD1) [M⁻¹ s⁻¹]	Fold PAD1 Selectivity (PAD1) [fold]	kinact/KI (PAD3) [M⁻¹ s⁻¹]	Fold PAD3 Selectivity (PAD3) [fold]	kinact/KI (PAD4) [M⁻¹ s⁻¹]	Fold PAD4 Selectivity (PAD4) [fold]	Ki (PAD2) [µM]	kinact (PAD2) [s⁻¹]
CCN1Cc2cccc(C(=O)N[C@@H](CCCNC(=N)CCl)c3nc4c(OC)cccc4n3C)c2C1=O [Compound 8l, N1-(2-ethyl-3-oxoisoindoline)benzoyl-N5-(2-chloro-1-iminoethyl)-1-(4-methoxy-1-methyl-benzo[d]imidazol-2-yl)-L-ornithine]	1240	5.0	963	3.9	247	1.0	323	1.3		
CCOc1cccc2c1nc([C@H](CCCNC(=N)CF)NC(=O)c1cccc3c1C(=O)N(CC)C3)n2C [Compound 8m, N1-(2-ethyl-3-oxoisoindoline)benzoyl-N5-(2-fluoro-1-iminoethyl)-1-(4-ethoxy-1-methyl-benzo[d]imidazol-2-yl)-L-ornithine]	1430	26	497	8.9	57.8	1.0	55.8	1.0		
CCOc1cccc2c1nc([C@H](CCCNC(=N)CCl)NC(=O)c1cccc3c1C(=O)N(CC)C3)n2C [Compound 8n, N1-(2-ethyl-3-oxoisoindoline)benzoyl-N5-(2chloro-1-iminoethyl)-1-(4-ethoxy-1-methyl-benzo[d]imidazol-2-yl)-L-ornithine]	1090	43	302	12	138	5.5	25.2	1.0		
CCN1Cc2cccc(C(=O)N[C@@H](CCCNC(=N)CF)c3nc4cc(OC)ccc4n3C)c2C1=O [Compound 8o, N1-(2-ethyl-3-oxoisoindoline)benzoyl-N5-(2-fluoro-1-iminoethyl)-1-(5-methoxy-1-methyl-benzo[d]imidazol-2-yl)-L-ornithine]	2230	125	842	47	17.8	1.0	68.3	3.8	18.7	0.0417
CCN1Cc2cccc(C(=O)N[C@@H](CCCNC(=N)CCl)c3nc4cc(OC)ccc4n3C)c2C1=O [Compound 8p, N1-(2-ethyl-3-oxoisoindoline)benzoyl-N5-(2-chloro-1-iminoethyl)-1-(5-methoxy-1-methyl-benzo[d]imidazol-2-yl)-L-ornithine]	1020	32	1180	37	296	9.3	31.7	1.0		
COc1cccc2c1nc([C@H](CCCNC(=N)CF)NC(=O)c1cccc3c1C(=O)N(C(C)C)C3)n2C [Compound 8q]	1560	58	858	32	26.7	1.0	70	2.6		
COc1cccc2c1nc([C@H](CCCNC(=N)CCl)NC(=O)c1cccc3c1C(=O)N(C(C)C)C3)n2C [Compound 8r]	853	4.1	732	3.5	241	1.2	207	1.0		
COc1cccc2c1nc([C@H](CCCNC(=N)CF)NC(=O)c1cccc3c1C(=O)N(C1CC1)C3)n2C [Compound 8s]	1570	77	766	38	20.3	1.0	75	3.8		
COc1cccc2c1nc([C@H](CCCNC(=N)CCl)NC(=O)c1cccc3c1C(=O)N(C1CC1)C3)n2C [Compound 8t]	958	6.7	674	4.7	158	1.1	143	1.0		
CCN1Cc2cccc(C(=O)N[C@@H](CCCNC(=N)CF)c3nc4c(OC)cccc4n3CC)c2C1=O [Compound 8u, N1-(2-ethyl-3-oxoisoindoline)benzoyl-N5-(2-fluoro-1-iminoethyl)-1-(4-methoxy-1-ethyl-benzo[d]imidazol-2-yl)-L-ornithine]	933	40	652	28	23.3	2.0	46.7	1.0	23.4	0.0218
CCN1Cc2cccc(C(=O)N[C@@H](CCCNC(=N)CCl)c3nc4c(OC)cccc4n3CC)c2C1=O [Compound 8v, N1-(2-ethyl-3-oxoisoindoline)benzoyl-N5-(2-chloro-1-iminoethyl)-1-(4-methoxy-1-ethyl-benzo[d]imidazol-2-yl)-L-ornithine]	776	27	907	31	99.5	3.4	29.2	1.0		
CCN1Cc2cccc(C(=O)N[C@@H](CCCNC(=N)CF)c3nc4cc(OC)ccc4[nH]3)c2C1=O [Compound 8w, N1-(2-ethyl-3-oxoisoindoline)benzol-N5-(2-fluoro-1-iminoethyl)-1-(5-methoxy-1H-benzo[d]imidazol-2-yl)-L-ornithine]	226	6.3	156	4.4	127	3.6	35.7	1.0		
CCN1Cc2cccc(C(=O)N[C@@H](CCCNC(=N)CCl)c3nc4cc(OC)ccc4[nH]3)c2C1=O [Compound 8x, N1-(2-ethyl-3-oxoisoindoline)benzoyl-N5-(2-chloro-1-iminoethyl)-1-(5-methoxy-1H-benzo[d]imidazol-2-yl)-L-ornithine]	590	9.1	504	7.8	267	4.1	64.8	1.0		
CCN1Cc2cccc(C(=O)N[C@@H](CCCNC(=N)CF)c3nc4cc(OC)ccc4n3CC)c2C1=O [Compound 8y, N1-(2-ethyl-3-oxoisoindoline)benzoyl-N5-(2-fluoro-1-iminoethyl)-1-(5-methoxy-1-ethyl-benzo[d]imidazol-2-yl)-L-ornithine]	630	70	253	28	24.7	2.7	9	1.0		
